Key:
B16 mouse melanoma cells = test: Cell based assay: melanin synthesis in B16 mouse melanoma cells; conditions: 6.25 micromolar, 72 hours, absorbency of medium at 530 nm, read-out: % of Control (Melanin Synthesis)
Description: This experiment was carried out using a cell based assay.
B16 mouse melanoma cells were utilized in the following experiment to evaluate the efficacy of skin lightening agents. B16 cells were plated in 96-well microtiter plates at a density of 5000 cells per well and cultured overnight in Dulbecco's Modified Eagle's Medium (phenol red free) containing 10% fetal bovine serum and 1% penicillin/streptomycin at 37° C. in the presence of 5% CO2. After 24 hours, the medium was replaced with fresh growth medium containing the treatments. All cultures were incubated for 72 hours at which time melanin was visible in the control treatment. The melanin-containing medium was transferred to a clean 96-well plate and quantified by reading the absorbency at 530-nm. Cell viability was assessed by measurement of lactate dehydrogenase levels to ensure the decrease in melanin was not a result of cellular toxicity.

mushroom tyrosinase = test: Mushroom tyrosinase assay; type: biochemical; conditions: for Tyrosinase activity (% of ethanol control): slope of 475-nm absorbency vs ethanol control, L-DOPA substrate; for effectiveness in skin lightening as measured by the mushroom tyrosinase assay (in words): compared with 4-ethyl resorcinol
Description: Mushroom tyrosinase inhibition is indicative of reduction in melanin synthesis, thereby showing skin lightening effect.
Into each well of a 96-well plate, 150 microliters of phosphate buffer (100 mM, pH 7.0), 10 microliters of L-DOPA (L-3,4-Dihydroxyphenylalanine, 10 mM), and 20 microliters of skin lightening agent (dissolved in ethanol, which is the control) were added. Following an initial measurement of background absorbency at 475-nm, 20 microliters of mushroom tyrosinase (Sigma T-7755; 6050 units/ml) was added and incubated at room temperature.
Absorbency was read at 475-nm over the following time points: 0, 2, 4, and 6.5 minutes. The data is plotted as 475-nm absorbency vs. time (minutes) and the slope of the line is calculated (ΔAbs 475 nm/min). Values are expressed as the percentage of the respective untreated ethanol control reaction.

| Tyrosinase activity (% of ethanol control) (mushroom tyrosinase; 1 micro-M) | Tyrosinase activity (% of ethanol control) (mushroom tyrosinase; 1.56 micro-M) | Tyrosinase activity (% of ethanol control) (mushroom tyrosinase; 12.5 micro-M) | Tyrosinase activity (% of ethanol control) (mushroom tyrosinase; 100 micro-M) | Tyrosinase activity (% of ethanol control) (mushroom tyrosinase; 0.1 micro-M) | Tyrosinase activity (% of ethanol control) (mushroom tyrosinase; 10 micro-M) | Structure (SMILES) | activity at 6.25 µM (B16 mouse melanoma cells) | effectiveness in skin lightening as measured by the mushroom tyrosinase assay (in words) (mushroom tyrosinase) |
| --- | --- | --- | --- | --- | --- | --- | --- | --- |
| 73.1% | 39.3% | 35.8% | 41.0% |  |  | COC(=O)CC(C)c1ccc(O)cc1O (stereo not drawn) [D1, Methyl 3-(2,4-dihydroxyphenyl)-butyrate] | 36.4% | substantially as effective as 4-ethyl resorcinol |
| 73.3% | 41.6% | 28.0% | 20.6% |  |  | CC(CC(=O)O)c1ccc(O)cc1O (stereo not drawn) [II, 3-(2,4-dihydroxyphenyl)-butyric acid] | 32.8% | substantially as effective as 4-ethyl resorcinol |

Second part, the molecule before the results:

| Structure (SMILES) | Tyrosinase activity (% of ethanol control) (mushroom tyrosinase; 1 micro-M) | Tyrosinase activity (% of ethanol control) (mushroom tyrosinase; 1.56 micro-M) | Tyrosinase activity (% of ethanol control) (mushroom tyrosinase; 12.5 micro-M) | Tyrosinase activity (% of ethanol control) (mushroom tyrosinase; 100 micro-M) | Tyrosinase activity (% of ethanol control) (mushroom tyrosinase; 0.1 micro-M) | Tyrosinase activity (% of ethanol control) (mushroom tyrosinase; 10 micro-M) | activity at 6.25 µM (B16 mouse melanoma cells) | effectiveness in skin lightening as measured by the mushroom tyrosinase assay (in words) (mushroom tyrosinase) |
| --- | --- | --- | --- | --- | --- | --- | --- | --- |
| O=c1ccc2ccc(O)cc2o1 [7-Hydroxy Coumarin, reference compound] | 100% |  |  | 117% | 104% | 108% |  |  |
| CCc1ccc(O)cc1O [4-Ethyl Resorcinol, reference compound] | 46.3% |  |  | 20.7% | 72.7% | 30.8% | 34% |  |
| CC1CC(=O)Oc2cc(O)ccc21 (stereo not drawn) [B1, 7-hydroxy-3,4-dihydro-4-methylcoumarin] | 94.2% | 90.4% | 70.4% | 75.3% |  |  | 75.8% | not effective in skin lightening |

— US7723537B2, “Skin lightening agents, compositions and methods” (Unilever Home & Personal Care USA, Division of Conopco, Inc., priority 2004, dated 2010)
